Common to all, as to type: biochemical, bacteriophage T7
Experiment [1] addresses T7 RNA polymerase variant G47A/S628W+C-terminal G (S628W), SEQ ID NO: 58 (Escherichia phage T7, UniProt P00573, G47A/S628W). The experiment can be described thus: GAG/e6A/m6A cap analog incorporation in IVT reactions, LC-MS % capped RNA (S628W). To be noted: 5 mM of each NTP. As to the method: (§1) In vitro transcription reactions were performed using DNA template, one of three cap analogs (GAG cap, m6A cap, and e6A cap) at varying concentrations, and (1) a G47A+C-terminal G RNA polymerase variant (control polymerase variant; G47A+C-terminal G), (2) a G47A/D506W+C-terminal G RNA polymerase variant (D506W), (3) a G47A/S628W+C-terminal G RNA polymerase variant (S628W), (4) a G47A/D653W+C-terminal G RNA polymerase variant (D653W), and (5) a G47A/P657W+C-terminal G RNA polymerase variant (P657W). IVT reactions using the m6A and e6A cap analogs were incorporated using a DNA template that encodes for a 5′A followed by G. Following the IVT reactions, each experiment was subjected to LC-MS to determine the % capped RNA (i.e., percent of transcribed RNA comprising a cap).
(§2) Conversely, even at 5 mM e6A, the control variant provided ˜40% of total RNA with incorporated e6A.
(§3) Conversely, even at 5 mM m6A, the control variant provided less than 30% of total RNA with incorporated m6A.

The target of experiment [2] is T7 RNA polymerase variant G47A/P657W+C-terminal G (P657W), SEQ ID NO: 60 (Escherichia phage T7, UniProt P00573, G47A/P657W). The experiment can be described thus: GAG/e6A/m6A cap analog incorporation in IVT reactions, LC-MS % capped RNA (P657W). Conditions: 5 mM of each NTP. How it is done:
as §1, §2, §3

Experiment [3] has as its target T7 RNA polymerase variant G47A/D653W+C-terminal G (D653W), SEQ ID NO: 59 (Escherichia phage T7, UniProt P00573, D653W/G47A). The experiment can be described thus: GAG/e6A/m6A/GGAG cap analog incorporation in IVT reactions, LC-MS % capped RNA (D653W). How it is done:
as §1, §2, §3
Conversely, even at 7.5 mM GGAG tetranuc, the control variant provided less than 70% of total RNA with incorporated GGAG.

The target in experiment [4] is T7 RNA polymerase variant G47A/D506W+C-terminal G (D506W), SEQ ID NO: 57 (Escherichia phage T7, UniProt P00573, D506W/G47A). The experiment can be described thus: GAG/e6A/m6A cap analog incorporation in IVT reactions, LC-MS % capped RNA (D506W). To be noted: 5 mM of each NTP. How it is done: as §1, §2, §3
Sequence of T7 RNA polymerase variant G47A/D506W+C-terminal G (D506W), SEQ ID NO: 57 (P00573 other isoform, or with tags, fused parts or gaps G47A/D506W): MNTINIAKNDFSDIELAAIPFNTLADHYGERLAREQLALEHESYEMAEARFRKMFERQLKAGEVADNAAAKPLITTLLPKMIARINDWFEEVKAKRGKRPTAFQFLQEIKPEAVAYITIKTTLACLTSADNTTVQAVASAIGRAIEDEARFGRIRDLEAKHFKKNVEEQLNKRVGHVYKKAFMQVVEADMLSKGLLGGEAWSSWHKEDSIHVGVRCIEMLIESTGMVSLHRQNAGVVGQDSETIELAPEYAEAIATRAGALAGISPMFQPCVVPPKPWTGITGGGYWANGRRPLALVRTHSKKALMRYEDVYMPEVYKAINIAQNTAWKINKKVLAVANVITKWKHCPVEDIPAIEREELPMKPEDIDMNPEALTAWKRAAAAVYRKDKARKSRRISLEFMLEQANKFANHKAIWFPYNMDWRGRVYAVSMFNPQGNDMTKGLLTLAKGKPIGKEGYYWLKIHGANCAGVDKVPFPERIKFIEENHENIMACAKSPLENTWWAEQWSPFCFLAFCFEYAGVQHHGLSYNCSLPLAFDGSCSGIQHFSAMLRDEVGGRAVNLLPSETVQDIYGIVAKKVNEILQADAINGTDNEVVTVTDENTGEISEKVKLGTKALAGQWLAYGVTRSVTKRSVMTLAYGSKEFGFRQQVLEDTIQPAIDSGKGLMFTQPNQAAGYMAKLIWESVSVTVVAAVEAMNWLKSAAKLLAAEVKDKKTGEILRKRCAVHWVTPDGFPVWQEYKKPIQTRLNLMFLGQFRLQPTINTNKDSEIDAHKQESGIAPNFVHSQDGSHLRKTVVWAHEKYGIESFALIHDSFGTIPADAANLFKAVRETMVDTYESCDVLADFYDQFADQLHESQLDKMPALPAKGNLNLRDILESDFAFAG
Where [5] appears, read: EC50 = concentration for 50% cap incorporation, vs G47A+C-terminal G.

SMILES strings stand for the structures.

Sequence of T7 RNA polymerase variant G47A/D653W+C-terminal G (D653W), SEQ ID NO: 59 (P00573 other isoform, or with tags, fused parts or gaps G47A/D653W): as the sequence (P00573 other isoform, or with tags, fused parts or gaps G47A/D506W) above, with W506D, D653W counted along it
Sequence of T7 RNA polymerase variant G47A/P657W+C-terminal G (P657W), SEQ ID NO: 60 (P00573 other isoform, or with tags, fused parts or gaps G47A/P657W): as the sequence (P00573 other isoform, or with tags, fused parts or gaps G47A/D506W) above, with W506D, P657W counted along it
Sequence of T7 RNA polymerase variant G47A/S628W+C-terminal G (S628W), SEQ ID NO: 58 (P00573 other isoform, or with tags, fused parts or gaps G47A/S628W): as the sequence (P00573 other isoform, or with tags, fused parts or gaps G47A/D506W) above, with W506D, S628W counted along it

As for `CO[C@@H]1[C@H](OP(=O)(O)OC[C@H]2O[C@@H](n3cnc4c(=O)[nH]c(N)nc43)[C@H](O)[C@@H]2O)[C@@H](COP(=O)(O)OP(=O)(O)OP(=O)([O-])OC[C@H]2O[C@@H](n3c[n+](C)c4c(=O)[nH]c(N)nc43)[C@H](O)[C@@H]2O)O[C@H]1n1cnc2c(N)ncnc21` [GAG cap], the “fold improvement (reduction) in EC50 for GAG cap incorporation, relative to the control variant” value in experiment [1] (setting [5]) amounted to 1.45 fold; in experiment [2] (setting [5]) it was 2.27 fold; in experiment [3] (7.5 mM of each NTP, FIG. 4E, vs G47A+C-terminal G), 12.3 fold; in experiment [4] (setting [5]), 1.28 fold. Besides, the “EC50 for GAG cap incorporation, relative to the control variant (in words)” value in experiment [3] (5 mM of each NTP, vs G47A+C-terminal G) was “significant improvement”.
With `CO[C@@H]1[C@H](OP(=O)(O)OC[C@H]2O[C@@H](n3cnc4c(N)ncnc43)[C@H](O)[C@@H]2OP(=O)(O)OC[C@H]2O[C@@H](n3cnc4c(=O)[nH]c(N)nc43)[C@H](O)[C@@H]2O)[C@@H](COP(=O)(O)OP(=O)(O)OP(=O)([O-])OC[C@H]2O[C@@H](n3c[n+](C)c4c(=O)[nH]c(N)nc43)[C@H](O)[C@@H]2O)O[C@H]1n1cnc2c(=O)[nH]c(N)nc21` [GGAG tetranuc], the “effective concentration of GGAG tetranuc cap analog for cap incorporation, relative to control variant (in words)” value in experiment [3] (7.5 mM of each NTP, FIG. 7) is “lesser effective concentrations”.
On to `CCNc1ncnc2c1ncn2[C@@H]1O[C@H](COP(=O)(O)OP(=O)(O)OP(=O)([O-])OC[C@H]2O[C@@H](n3c[n+](C)c4c(=O)[nH]c(N)nc43)[C@H](O)[C@@H]2O)[C@@H](OP(=O)(O)OC[C@H]2O[C@@H](n3cnc4c(=O)[nH]c(N)nc43)[C@H](O)[C@@H]2O)[C@H]1OC` [e6A cap, m^7Gpppe^6A2′OmepG], for which the “effective concentration of e6A cap analog for cap incorporation, relative to control variant (in words)” value is on record as “lesser effective concentrations” in experiment [1] (FIGS. 5A-5D); “lesser effective concentrations” in experiment [2] (FIGS. 5A-5D); “lesser effective concentrations” in experiment [3] (5 mM of each NTP, FIGS. 5A-5D); “lesser effective concentrations” in experiment [4] (FIGS. 5A-5D).
As for `CNc1ncnc2c1ncn2[C@@H]1O[C@H](COP(=O)(O)OP(=O)(O)OP(=O)([O-])OC[C@H]2O[C@@H](n3c[n+](C)c4c(=O)[nH]c(N)nc43)[C@H](O)[C@@H]2O)[C@@H](OP(=O)(O)OC[C@H]2O[C@@H](n3cnc4c(=O)[nH]c(N)nc43)[C@H](O)[C@@H]2O)[C@H]1OC` [m6A cap, m^7Gpppm^6A2′OmepG], the “effective concentration of m6A cap analog for cap incorporation, relative to control variant (in words)” value in experiment [1] (FIGS. 6A-6D) was “lesser effective concentrations”; in experiment [2] (FIGS. 6A-6D), “lesser effective concentrations”; in experiment [3] (5 mM of each NTP, FIGS. 6A-6D), “lesser effective concentrations”; in experiment [4] (FIGS. 6A-6D), “lesser effective concentrations”.

Values taken from patent US12180518B2, “RNA polymerase variants for co-transcriptional capping” (priority 2019, dated 2024).
